Assay results: the NIST ThermoML archive (doi:10.1021/acs.jced.7b01125)

Assay: xn = mol fraction of the nth substance listed
Details: Gas, Buoyancy - hydrostatic balance with magnetic suspension - one sinker

[HH] [hydrogen] + C
Details | mass density [kg/m3]
324.96 K, 10000 kPa, x2 = 0.9 | 58.331
324.96 K, 11000 kPa, x2 = 0.4997 | 36.202
324.96 K, 11001 kPa, x2 = 0.9 | 64.438
324.96 K, 12002 kPa, x2 = 0.4997 | 39.381
324.96 K, 12003 kPa, x2 = 0.9 | 70.531
324.96 K, 12999 kPa, x2 = 0.4997 | 42.522
324.96 K, 13002 kPa, x2 = 0.9 | 76.592
324.96 K, 14000 kPa, x2 = 0.4997 | 45.642
324.96 K, 14001 kPa, x2 = 0.9499 | 88.324
324.96 K, 14003 kPa, x2 = 0.9 | 82.625
324.96 K, 14998 kPa, x2 = 0.4997 | 48.72
324.96 K, 15000 kPa, x2 = 0.9 | 88.578
324.96 K, 15003 kPa, x2 = 0.9499 | 94.801
324.96 K, 15999 kPa, x2 = 0.4997 | 51.775
324.96 K, 16001 kPa, x2 = 0.9 | 94.491
324.96 K, 16003 kPa, x2 = 0.9499 | 101.187
324.96 K, 16999 kPa, x2 = 0.4997 | 54.795
324.96 K, 16999 kPa, x2 = 0.9 | 100.301
324.96 K, 17994 kPa, x2 = 0.4997 | 57.761
324.96 K, 18000 kPa, x2 = 0.9499 | 113.635
324.96 K, 18006 kPa, x2 = 0.9 | 106.065
324.96 K, 19001 kPa, x2 = 0.9 | 111.659
324.96 K, 19002 kPa, x2 = 0.4997 | 60.728
324.96 K, 19004 kPa, x2 = 0.9499 | 119.703
324.96 K, 19631 kPa, x2 = 0.4997 | 62.562
324.96 K, 19902 kPa, x2 = 0.9 | 116.626
324.96 K, 19924 kPa, x2 = 0.9499 | 125.148
324.97 K, 999 kPa, x2 = 0.9499 | 5.733
324.97 K, 1999 kPa, x2 = 0.9499 | 11.594
324.97 K, 2985 kPa, x2 = 0.9499 | 17.488
324.97 K, 3998 kPa, x2 = 0.9499 | 23.665
324.97 K, 4999 kPa, x2 = 0.9499 | 29.867
324.97 K, 5999 kPa, x2 = 0.9499 | 36.165
324.97 K, 6999 kPa, x2 = 0.9499 | 42.544
324.97 K, 7999 kPa, x2 = 0.9499 | 49.004
324.97 K, 10000 kPa, x2 = 0.9499 | 62.076
324.97 K, 11004 kPa, x2 = 0.9499 | 68.681
324.97 K, 12002 kPa, x2 = 0.9499 | 75.249
324.97 K, 13002 kPa, x2 = 0.9499 | 81.811
324.97 K, 17001 kPa, x2 = 0.9499 | 107.464
349.95 K, 999 kPa, x2 = 0.9 | 5.061
349.95 K, 999 kPa, x2 = 0.9499 | 5.309
349.95 K, 1003 kPa, x2 = 0.4997 | 3.109
349.95 K, 1999 kPa, x2 = 0.9 | 10.188
349.95 K, 1999 kPa, x2 = 0.9499 | 10.702
349.95 K, 2004 kPa, x2 = 0.4997 | 6.207
349.95 K, 2985 kPa, x2 = 0.9 | 15.301
349.95 K, 2999 kPa, x2 = 0.9499 | 16.173
349.95 K, 3002 kPa, x2 = 0.4997 | 9.284
349.95 K, 3999 kPa, x2 = 0.9 | 20.614
349.95 K, 4000 kPa, x2 = 0.9499 | 21.712
349.95 K, 4004 kPa, x2 = 0.4997 | 12.364
349.95 K, 4999 kPa, x2 = 0.9 | 25.902
349.95 K, 4999 kPa, x2 = 0.9499 | 27.309
349.95 K, 5003 kPa, x2 = 0.4997 | 15.42
349.95 K, 5998 kPa, x2 = 0.9 | 31.226
349.95 K, 5998 kPa, x2 = 0.9499 | 32.957
349.95 K, 6002 kPa, x2 = 0.4997 | 18.469
349.95 K, 6998 kPa, x2 = 0.9 | 36.584
349.95 K, 7000 kPa, x2 = 0.9499 | 38.671
349.95 K, 7001 kPa, x2 = 0.4997 | 21.49
349.95 K, 7998 kPa, x2 = 0.9499 | 44.399
349.95 K, 7999 kPa, x2 = 0.9 | 41.97
349.95 K, 8001 kPa, x2 = 0.4997 | 24.491
349.95 K, 8997 kPa, x2 = 0.9 | 47.361
349.95 K, 8997 kPa, x2 = 0.9499 | 50.163
349.95 K, 9000 kPa, x2 = 0.4997 | 27.473
349.95 K, 9996 kPa, x2 = 0.9499 | 55.938
349.95 K, 9999 kPa, x2 = 0.4997 | 30.433
349.95 K, 10000 kPa, x2 = 0.9 | 52.782
349.95 K, 10999 kPa, x2 = 0.9499 | 61.741
349.95 K, 11000 kPa, x2 = 0.9 | 58.181
349.95 K, 11001 kPa, x2 = 0.4997 | 33.381
349.95 K, 11995 kPa, x2 = 0.4997 | 36.281
349.95 K, 11997 kPa, x2 = 0.9499 | 67.507
349.95 K, 12003 kPa, x2 = 0.9 | 63.582
349.95 K, 12996 kPa, x2 = 0.4997 | 39.178
349.95 K, 12998 kPa, x2 = 0.9499 | 73.267
349.95 K, 13000 kPa, x2 = 0.9 | 68.93
349.95 K, 13993 kPa, x2 = 0.4997 | 42.035
349.95 K, 13994 kPa, x2 = 0.9 | 74.229
349.95 K, 13998 kPa, x2 = 0.9499 | 78.993
349.95 K, 14997 kPa, x2 = 0.9499 | 84.669
349.95 K, 14998 kPa, x2 = 0.9 | 79.534
349.95 K, 15001 kPa, x2 = 0.4997 | 44.896
349.95 K, 15997 kPa, x2 = 0.9 | 84.764
349.95 K, 15998 kPa, x2 = 0.4997 | 47.697
349.95 K, 15998 kPa, x2 = 0.9499 | 90.284
349.95 K, 16997 kPa, x2 = 0.4997 | 50.454
349.95 K, 16998 kPa, x2 = 0.9499 | 95.842
349.95 K, 17000 kPa, x2 = 0.9 | 89.954
349.95 K, 17989 kPa, x2 = 0.4997 | 53.192
349.95 K, 17998 kPa, x2 = 0.9499 | 101.317
349.95 K, 19002 kPa, x2 = 0.4997 | 55.94
349.95 K, 19002 kPa, x2 = 0.9499 | 106.734
349.95 K, 19350 kPa, x2 = 0.9 | 101.832
349.95 K, 19873 kPa, x2 = 0.9499 | 111.352
349.95 K, 19933 kPa, x2 = 0.4997 | 58.441
